Results: patent US6827926B2, “Metallotetrapyrrolic photosensitizing agents for use in photodynamic therapy” (Miravant Pharmaceuticals, Inc., priority 2001, dated 2004)
pEC50: −log10 of the molar value. Read-outs that look alike come from different tables or passages of the source.

Key:
[1] = system: V79 (Chinese Hamster Lung Fibroblasts) cells; experiment: In vitro cytotoxicity assay (light EC50, Alamar blue); format: cell-based
Procedure: The in vitro biological evaluation of photosensitizers for their ability to photosensitize cells was performed using standard procedures. Using 5% FBS/DMEM phenol-free media, wells (180 μl/well) were plated with 5×10^4 V79 (Chinese Hamster Lung Fibroblasts) cells/ml into two 96 well plates. Plate 1 was light-treated and plate 2 served as a control. The plates were Incubated at 37° C., 5% CO2 for 3-5 hours. Standard solutions of the photosensitizers were dissolved in pre-filtered Dimethyl Sulfoxide (DMSO). Drug was diluted in 5% FBS DMEM phenol free medium. Final drug concentrations for light and dark experiments were 0.01, 0.1, 1.0, 3.0 and 5.0 μM. Twenty microliters of each concentration were added to six replicate wells to the light and dark plate. The plates were wrapped in aluminum foil to avoid photoactivation and mixed in a gyratory shaker for approximately 2 minutes. Both plates were incubated for 24 hours at 37° C., 5% CO2. After a 24 hour incubation, drug-containing media was aspirated from the plates. Each well was rinsed with 180 μl Hepes buffer salt solution (HBSS) then aspirated to remove the HBSS. 180 μl of fresh media were added (5% FBS/DMEM phenol-free) to each well. […] Plate 2 was not light treated. Immediately after light treatment, 20 μl Alamar blue was added to each well in plate 1. Alamar blue was added to plate 2 immediately after fresh media was added. The plates were mixed on a gyratory shaker for 5 min.
Both plates were incubated under dark conditions for 24 hours at 37° C., 5% CO2. After 24 hour incubation, the plates were read on a plate reader spectrophotometer (Spectra Max 250) at wavelengths 570 and 600 nm. and the percentage of cell survival recorded.

[2] = system: normal skin of CD Hairless male rats; format: in vivo, rat; conditions: rat, in vivo
Text: We tested metallo- and metal-free tetrapyrroles systemically (see following section) for normal skin response in relation to the pharmacodynamic distribution of the photosensitizers in CD hairless rats. The skin of CD hairless rats are poorly developed, often referred to as hyperkeratotic, with various sized cystic hair follicles containing concentric lamellar accumulations of keratinaceous material, which are often associated with enlarged sebaceous glands. It quickly became apparent that gallium tetrapyrroles induced a marked clearing of the hyperkeratotic lesions in the treatment areas on the hairless rats. In fact, this clearing could be induced without necrosis of the skin. No other metallotetrapyrrole type produced such effects. This observation led us to assess the metallotetrapyrrolic compounds for skin restructuring effects both topically and systemically and for their ability to reduce hair growth in the following animal models.
Photosensitizer normal skin response as well as skin healing response, was evaluated using CD Hairless male rats. Photosensitizers were administered in an liposomal egg yolk phospholipid formulation at 1, 1.5 and 2 μmol/kg body weight formulation per dose group as a single bolus intravenous injection given through a marginal tail vein using a 27 gauge needle and a 1 cc tuberculin syringe. Normal skin responses were evaluated by irradiating several spots on the skin of the rat with a 532 nm laser (150 mW/cm^2, 150J, 1 cm diameter) at 1, 6, 24, 48, and 96 hrs post injection. Normal skin responses were evaluated and documented. The time at which the last spot is observed at the concentration injected is reported in the far right hand column in Tables 3, 4, 5 and 6. Skin samples were taken for histological evaluation at days 1, 10, 20 and 22 post light treatment. Rats were housed under normal lighting and all study procedures involving the test article were conducted under light filtered through blue and green Roscolox light filters to prevent photoactivation or degradation of the drug.

[3] = system: normal uninjured rat carotid arteries (medial and adventitial cell populations); experiment: In vivo rat carotid artery acellularity after PDT; set-up: species or system Sprague Dawley rats; conditions: for Max % rat Artery Accelularity: Table 3, 50 J/cm^2, 3 days post treatment; for efficacy of free base porphyrins in the arterial rat model: at the time point, drug and light dose parameters used
Procedure: The acute effects of metallated photosensitizers, in response to light activation, to cause depletion of cell populations in the medial and adventitial layers of vessels was measured in normal uninjured rat carotid arteries. […] Shortly before the light treatment, the rats were anaesthetized with 3.5% isoflurane (Abbott Laboratories, IL, USA) and the femoral region of the right leg was shaved and cleaned. […] A direct arteriotomy was performed and a light balloon catheter ([…] Medical Technologies, Inc) was introduced into the vessel and advanced retrogradely into a non-manipulated region of the left common carotid artery via the abdominal aorta. […] After light treatment and removal of the catheter, the right femoral artery was tied off and the skin wound was closed. Rats were sacrificed three days post treatment as this corresponds to the known peak time that vascular cells, e.g., VSMC and myofibroblasts, proliferate and migrate in response to an injury. The area spanning both left and right carotid arteries and surrounding tissue was harvested, fixed, embedded in paraffin and sectioned. The tissues were stained with Hematoxylin and Eosin (Fisher Scientific, PA) and examined by light microscopy to histologically assess the cell population density in the medial and adventitial layers of the PDT-treated vessel wall. […] Metallo azaporphyrins with Ga, Zn, Al, Sn were excited at 575 nm, while Pt azaporphyrins were excited at 532 nm.

[4] = Table 3 porphyrins, 24 h drug incubation, 532 nm, 1.25 J/cm^2, read-out: In Vitro EC50 Light
[5] = light EC50, metallodiazaporphyrins, read-out: In Vitro EC(50)
[6] = Table 4 azaporphyrins, 575 nm (Pt azaporphyrins 532 nm), 1.25 J/cm^2, read-out: In Vitro EC(50)

Compound	pEC50 [1, 4]	Max % rat Artery Accelularity ([3]; drug dose 1 μMol)	other results
COC(=O)CCC1=C(C)c2cc3[n-]c(cc4nc(cc5[n-]c(cc1n2)c(CCC(=O)OC)c5C)C(C)=C4C=CCN(C)C)c(C)c3C=CCN(C)C.[Ga+3].[OH-] [Example 43, Gallium Hydroxy 3,8-Bis-(N,N-dimethylaminoprop-2-en-3-yl)deuteroporphyrin dimethyl ester]	5.61	–	Normal skin Response (1 μmol) in hrs [2]: None
CCOC(=O)CCCCC1=C(C)c2cc3[nH]c(cc4nc(cc5[nH]c(cc1n2)c(CCCCC(=O)OCC)c5C)C(C)=C4CC)c(C)c3CC.[Pt] [Example 53, Platinum 8,13-diethyl-3,7,12,17-tetramethylporphyrin-2,18-di(pentanoic acid ethyl ester)]	7.00	20%	–
CCC1=C(C)C2=[N+]3C1=Cc1c(C)c(CC)c4[n]1[Al-2]31([Cl])[n]3c(c(C)c(CCCO)c3=CC3=[N+]1C(=C4)C(C)=C3CCCO)=C2 [Example 73, Aluminum Chloride 8,13-diethyl-3,7,12,17-tetramethylporphyrin-2,18-di(3′-hydroxypropyl)]	5.44	0%	–
CCC1=C(C)c2cc3[n-]c(cc4nc(cc5[n-]c(cc1n2)c(C)c5CC)C(C)=C4CCCN(CC)CC)c(CCCN(CC)CC)c3C.[Zn+2] [Example 79, Zinc 8,13-diethyl-3,7,12,17 tetramethylporphyrin-2,18-di((N,N-diethyl)-3-aminopropyl)]	–	–	Normal skin Response (1 μmol) in hrs [2]: None
CCC1=C(CC)C2=[N+]3C1=Nc1c(CC)c(CC)c4[n]1[Pt-2]31[n]3c(c(C)c(CCC(=O)[O-])c3=CC3=[N+]1C(=C4)C(C)=C3CCC(=O)[O-])=C2.[K+].[K+] (stereo not shown) [Example 86, Platinum 7,8,12,13-tetraethyl-12,17-dimethyl-10-azaporphyrin-2,18-di(propionic acid Potassium Salt)]	–	–	Normal skin Response (1 μmol) [2]: 96 h
CCC1=C(C)c2cc3[n-]c(cc4nc(cc5[n-]c(cc1n2)c(C)c5CC)C(C)=C4CCC(=O)[O-])c(CCC(=O)[O-])c3C.[In+3].[Na+].[Na+].[OH-] [Example 110, Indium Hydroxy Mesoporphyrin Disodium Salt]	6.00	0%	–
CCC1=C(C)C2=Cc3c(CC)c(C)c4[n]3[Pt][n]3c(c(C)c(CCC(=O)[O-])c3=CC3=NC(=C4)C(C)=C3CCC(=O)[O-])=CC1=N2.[Na+].[Na+] [Example 111, Platinum Mesoporphyrin Disodium Salt]	6.15	0%	–
C=CC1=C(C)c2cc3[n-]c(cc4nc(cc5[n-]c(cc1n2)c(C)c5CCC(=O)[O-])C(CCC(=O)[O-])=C4C)c(C)c3C=C.[In+3].[Na+].[Na+].[OH-] [Example 112, Indium Hydroxy Protoporphyrin Disodium Salt]	5.82	0%	–
CC1=C(CCC(=O)[O-])c2cc3[n-]c(cc4nc(cc5[n-]c(cc1n2)c(CCC(=O)[O-])c5C)C(C)=C4CCC(=O)[O-])c(CCC(=O)[O-])c3C.[In+3].[Na+].[Na+].[Na+].[Na+].[OH-] [Example 113, Indium Hydroxy Coproporphyrin III Tetra Sodium Salt]	5.44	0%	–
CCC1=C(CC)C2=[N+]3C1=Nc1c(CC)c(CC)c4[n]1[Pt-2]31[n]3c(c(CC)c(CC)c3=C2c2ccc(OC)cc2)=NC2=[N+]1C(=C4c1ccc(OC)cc1)C(CC)=C2CC (stereo not shown) [M=Pt, R1=Et, R2=Et, R3=p-(C6H4)OCH3]	–	–	pEC50 [1, 5]: 6.52
CCC1=C(C)c2cc3[nH]c(cc4nc(cc5[nH]c(cc1n2)c(C)c5CCC(=O)OC)C(CCC(=O)OC)=C4C)c(C)c3CC [mesoporphyrin dimethyl ester, reference compound]	–	–	efficacy of free base porphyrins in the arterial rat model [3]: poor efficacy
CCC1=C(C)c2cc3[nH]c(cc4nc(cc5[nH]c(cc1n2)c(C)c5CC)C(C)=C4CCCC(=O)OC)c(CCCC(=O)OC)c3C [metal-free analog of compound 26, 8,13-diethyl-3,7,12,17-tetramethylporphyrin-2,18-di(butanoic acid methyl ester)]	–	–	efficacy of free base porphyrins in the arterial rat model [3]: poor efficacy
CCOC(=O)CCCCC1=C(C)c2cc3[nH]c(cc4nc(cc5[nH]c(cc1n2)c(CCCCC(=O)OCC)c5C)C(CC)=C4C)c(CC)c3C [metal-free analog of compound 28, 8,13-diethyl-3,7,12,17-tetramethylporphyrin-2,18-di(pentanoic acid ethyl ester)]	–	–	efficacy of free base porphyrins in the arterial rat model [3]: poor efficacy
Aluminum Chloride 8,13-diethyl-3,7,12,17-tetramethylporphyrin-2,18-di(butanoic acid methyl ester) [Example 48]	5.40	0%	–
Gallium Chloride 3,7,14,17-tetramethyl-5,10-diazaporphyrin-2,8,12,18-tetra (3′-hydroxypropyl) [Example 118]	–	–	pEC50 [1, 5]: 6.52
Gallium Chloride 3,7,14,17-tetramethyl-5,10-diazaporphyrin-2,8,12,18-tetra propionic acid [Example 117]	–	–	pEC50 [1, 5]: 6.22
Gallium Chloride 7,8,12,13-tetraethyl-12,17-dimethyl-10-azaporphyrin-2,18-di(3′-hydroxypropyl) [Example 23]	–	–	pEC50 [1, 6]: 7.30; Max % Rat Artery Accelularity ([3]; Table 4, drug dose 1 μMol, 575 nm (Pt 532 nm)): 50%
Gallium Chloride 7,8,12,13-tetraethyl-12,17-dimethyl-10-azaporphyrin-2,18-di(propionic acid-2′-N,N-dimethylaminoethyl amide) [Example 102]	–	–	pEC50 [1, 6]: 5.92
Gallium Chloride 7,8,12,13-tetraethyl-12,17-dimethyl-10-azaporphyrin-2,18-di(propionic acid-3′-hydroxypropyl amide) [Example 97]	–	–	pEC50 [1, 6]: 5.77
Gallium Chloride 8,13-diethyl-3,7,12,17-tetramethylporphyrin-2,18-di(butanoic acid methyl ester) [Example 26]	6.43	75%	–
Platinum 3,7,14,17-tetramethyl-5,10-diazaporphyrin-2,8,12,18-tetra(3′-hydroxypropyl) [Example 120]	–	–	pEC50 [1, 5]: 7.22
Platinum 3,7,14,17-tetramethyl-5,10-diazaporphyrin-2,8,12,18-tetra(propionic acid methyl ester [Example 119]	–	–	pEC50 [1, 5]: 6.46
Zinc 8,13-diethyl-3,7,12,17-tetramethylporphyrin-2,18-di(butanoic acid methyl ester) [Example 49]	5.40	0%	–
